Measurements taken from US7875289B2, “Compositions of less immunogenic and long-circulating protein-lipid complexes” (The Research Foundation of State University of New York, priority 2006, dated 2011).

Molecular target: T1, BDDrFVIII (Homo sapiens, UniProt P00451)
T1 construct: Deletion of the B domain leads to a less heterogenic, genetically engineered rFVIII that corresponds to the shortest form of pdFVIII (e.g. ˜170 KDa)
T1 sequence (P00451 with tags, fused parts or gaps DEL765-1658): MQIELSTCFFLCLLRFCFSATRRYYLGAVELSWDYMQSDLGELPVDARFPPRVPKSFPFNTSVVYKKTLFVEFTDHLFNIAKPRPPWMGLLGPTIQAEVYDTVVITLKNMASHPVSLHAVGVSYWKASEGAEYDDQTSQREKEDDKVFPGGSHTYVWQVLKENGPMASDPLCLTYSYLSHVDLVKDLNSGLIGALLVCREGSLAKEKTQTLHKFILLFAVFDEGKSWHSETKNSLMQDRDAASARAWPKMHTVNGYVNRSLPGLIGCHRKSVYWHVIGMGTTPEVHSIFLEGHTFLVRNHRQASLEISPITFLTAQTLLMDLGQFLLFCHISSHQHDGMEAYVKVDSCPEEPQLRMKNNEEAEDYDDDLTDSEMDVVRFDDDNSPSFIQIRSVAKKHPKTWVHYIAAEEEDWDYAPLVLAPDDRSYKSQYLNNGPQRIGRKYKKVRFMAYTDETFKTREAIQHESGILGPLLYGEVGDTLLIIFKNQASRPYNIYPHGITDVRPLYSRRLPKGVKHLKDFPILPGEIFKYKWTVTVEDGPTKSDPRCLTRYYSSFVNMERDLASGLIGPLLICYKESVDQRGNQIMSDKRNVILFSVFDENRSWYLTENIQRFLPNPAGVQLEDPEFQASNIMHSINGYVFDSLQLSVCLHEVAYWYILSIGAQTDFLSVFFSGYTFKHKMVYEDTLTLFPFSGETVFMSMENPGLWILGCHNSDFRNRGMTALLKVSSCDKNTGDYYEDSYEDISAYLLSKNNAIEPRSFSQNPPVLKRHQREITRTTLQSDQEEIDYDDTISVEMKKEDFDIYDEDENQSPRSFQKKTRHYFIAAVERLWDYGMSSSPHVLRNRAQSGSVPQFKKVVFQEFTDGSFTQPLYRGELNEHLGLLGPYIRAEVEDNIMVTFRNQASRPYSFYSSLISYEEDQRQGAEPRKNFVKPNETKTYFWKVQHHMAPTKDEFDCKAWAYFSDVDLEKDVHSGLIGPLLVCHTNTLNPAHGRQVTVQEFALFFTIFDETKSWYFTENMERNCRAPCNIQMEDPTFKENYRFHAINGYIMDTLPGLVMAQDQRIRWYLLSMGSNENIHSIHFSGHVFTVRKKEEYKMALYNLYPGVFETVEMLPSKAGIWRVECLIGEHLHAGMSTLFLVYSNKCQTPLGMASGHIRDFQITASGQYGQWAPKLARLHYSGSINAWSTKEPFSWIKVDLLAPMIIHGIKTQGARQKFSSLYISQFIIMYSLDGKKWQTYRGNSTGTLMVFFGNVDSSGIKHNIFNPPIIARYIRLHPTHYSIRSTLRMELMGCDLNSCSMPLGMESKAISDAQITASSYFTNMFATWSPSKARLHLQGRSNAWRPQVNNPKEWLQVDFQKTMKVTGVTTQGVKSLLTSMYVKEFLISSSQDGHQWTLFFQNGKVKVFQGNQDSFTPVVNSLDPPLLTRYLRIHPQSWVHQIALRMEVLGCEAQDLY
Assay: Dissociation constant of lipid head group - BDDrFVIII interaction by intrinsic fluorescence
Format: binding
Conditions: excitation 285 nm, emission 330 nm, protein 3 ug/mL
Method: This examples describes the preparation of PS containing liposomes that were used for comparison with the PI containing lipidic structures in other Examples. BDDrFVIII was mixed with solution containing different concentration of O-phospho-L-serine (OPLS) or phosphocholine in such a way that the final protein concentration is maintained constant at 3 ug/mL. The OPLS or phosphocholine concentration vared between 0 and 100 uM. Each mixture is incubated for 5 minutes before subjecting to further analysis.
The intrinsic fluorescent of BDDrFVIII in the presence of increasing concentration of phospholipids head group was measured with a Quanta Master PTI instrument. The excitation was set to 285 nm and the emission was recorded at peak maximum (e.g. 330 nm). The normalized fluorescence (F/F0) data was plotted vs. [lipid] and used for the determination of the dissociation constant for lipid head group—BDDrFVIII interaction.

| SMILES | Kd [µM] |
| --- | --- |
| N[C@@H](COP(=O)(O)O)C(=O)O [OPLS, O-phospho-L-serine] | 70.2 |
| C[N+](C)(C)CCOP(=O)([O-])O [phophocholine, phosphocholine] | 24.2 |
